# Measured values as given in publication PMC10892419, “UHPLC-MS/MS Assay for Quantification of Legubicin, a Novel Doxorubicin-Based Legumain-Activated Prodrug, and Its Application to Pharmacokinetic and Tissue Distribution Studies” (Molecules, 2024).
# Key:
# legumain = molecular target: T1, legumain (Homo sapiens, UniProt Q99538); assay: Stability of Leu-DOX in the legumain enzymatic system; format: in vitro ADME; details: plasma samples spiked with Leu-DOX, enzymatic digestion procedure (24 h, 37 °C), n = 3
# T1 sequence (Q99538 18-433): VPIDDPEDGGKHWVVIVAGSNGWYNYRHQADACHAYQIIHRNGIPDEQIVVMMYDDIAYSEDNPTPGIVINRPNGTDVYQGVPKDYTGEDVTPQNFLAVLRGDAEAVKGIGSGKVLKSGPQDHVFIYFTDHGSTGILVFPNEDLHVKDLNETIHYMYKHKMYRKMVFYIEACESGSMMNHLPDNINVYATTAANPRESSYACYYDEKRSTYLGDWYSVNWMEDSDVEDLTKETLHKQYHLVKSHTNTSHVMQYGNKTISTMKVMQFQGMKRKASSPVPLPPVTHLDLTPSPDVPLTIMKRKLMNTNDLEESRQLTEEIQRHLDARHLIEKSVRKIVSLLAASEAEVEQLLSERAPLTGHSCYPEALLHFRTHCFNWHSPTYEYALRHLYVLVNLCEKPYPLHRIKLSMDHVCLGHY
# Experimental: The specific liquid-phase conditions are shown as follows. Column: Agilent Eclipse Plus 4.6 × 250 mm, 5 µm; mobile phase A: 0.1% trifluoroacetic acid in water; mobile phase B: acetonitrile. Flow rate: 1.0 mL/min; HPLC: Waters 2695; detector: Waters 2475 detector (ex470/em600); column temperature: 30 °C; injection volume: 10 µL; run time: 30 min; needle wash solvent: 50% acetonitrile in water; gradient elution: starting 20% B, increasing from 20% to 45% B in 15 min, increasing from 45% to 80% B in 15 to 20 min, maintained for 5 min, then decreasing to 20% B in 0.1 min, and continuing until the end of 30 min. (b) Kinetics of Leu-Dox release from legubicin (black) and legubicin–albumin conjugate (blue) in the presence of legumain (n = 4). (c) Stability of Leu-Dox in this enzymatic system (n = 3).
# The assessment of Leu-DOX stability in the aforementioned enzymatic systems warrants careful consideration. Consequently, plasma samples containing Leu-DOX were intentionally supplemented to assess the potential impacts of these methods on the precise determination of the enzymatic digestion of the legubicin plasma protein complex, which is utilized for determining the total Leu-DOX post-digestion. […]
# [1] = Storage stability of analytes in mouse tumor homogenate (method validation); details: for Freeze and thaw stability at -80 °C/ room temperature, Bias / Freeze and thaw stability at -80 °C/ room temperature, Measured concentration / Short term stability at room temperature (6 h), Bias / Short term stability at room temperature (6 h), Measured concentration: mouse tumor homogenate; for Freeze and thaw stability at -80 °C/ room temperature, Bias / Freeze and thaw stability at -80 °C/ room temperature, Measured concentration: 3 cycles; for Freeze and thaw stability at -80 °C/ room temperature, Bias / Short term stability at room temperature (6 h), Bias / Auto-sampler stability at 2-8 °C, Bias: low QC (Leu-DOX 27, DOX 9 pmol/mL), n = 6; for Freeze and thaw stability at -80 °C/ room temperature, Measured concentration / Short term stability at room temperature (6 h), Measured concentration / Auto-sampler stability at 2-8 °C, Measured concentration: low QC (nominal Leu-DOX 27, DOX 9 pmol/mL), n = 6, mean ± SD; for Auto-sampler stability at 2-8 °C, Bias / Auto-sampler stability at 2-8 °C, Measured concentration: processed mouse tumor homogenate, 48h
# Experimental: Tumor-bearing mouse tumor/individual tissue samples were homogenized by adding PBS at a ratio of 1:5 (e.g., 1 g of tumor sample to 5 mL of PBS) to make a tumor/tissue homogenate. A quantity of 60 µL of homogenate was taken as a tumor/tissue sample and processed in the same manner as the mouse plasma sample, with the exception of 240 µL of IS working solution used for protein precipitation.
# By investigating low- and high-concentration stability QCs in six replicates at different storage conditions, autosampler, short-term (bench-top), freeze and thaw, and long-term stability evaluations were conducted.
# [2] = in vivo; cited from earlier work
smiles,measurement,setting,value
"COc1cccc2c1C(=O)c1c(O)c3c(c(O)c1C2=O)C[C@@](O)(C(=O)CO)C[C@@H]3O[C@H]1C[C@H](NC(=O)[C@@H](N)CC(C)C)[C@H](O)[C@H](C)O1 [Leu-DOX, N-L-leucyl-doxorubicin]",stability in the legumain enzymatic digestion system,legumain,remained unaltered throughout the enzymatic digestion procedure
same,"Freeze and thaw stability at -80 °C/ room temperature, Bias",[1],2.6%
same,"Freeze and thaw stability at -80 °C/ room temperature, Measured concentration",[1],27.70 ± 1.13 pmol/mL
same,"Short term stability at room temperature (6 h), Bias",[1],2.2%
same,"Short term stability at room temperature (6 h), Measured concentration",[1],27.58 ± 1.95 pmol/mL
same,"Auto-sampler stability at 2-8 °C, Bias",[1],-0.4%
same,"Auto-sampler stability at 2-8 °C, Measured concentration",[1],26.88 ± 0.94 pmol/mL
"COc1cccc2c1C(=O)c1c(O)c3c(c(O)c1C2=O)C[C@@](O)(C(=O)CO)C[C@@H]3O[C@H]1C[C@H](N)[C@H](O)[C@H](C)O1 [DOX, Doxorubicin]",Vz,[2],72 L/kg
same,clearance (CL),[2],approximately 2553 mL/h/kg
same,"Freeze and thaw stability at -80 °C/ room temperature, Bias",[1],-1.2%
same,"Freeze and thaw stability at -80 °C/ room temperature, Measured concentration",[1],8.89 ± 0.66 pmol/mL
same,"Short term stability at room temperature (6 h), Bias",[1],5.7%
same,"Short term stability at room temperature (6 h), Measured concentration",[1],9.51 ± 0.67 pmol/mL
same,"Auto-sampler stability at 2-8 °C, Bias",[1],-5.1%
same,"Auto-sampler stability at 2-8 °C, Measured concentration",[1],8.54 ± 0.89 pmol/mL
